Data published in patent US20230095926A1, “PARASITE CONTROL IN RUMINANTS” (Intervet Inc., priority 2019, published 2023).

Test system: sheep body lice (Bovicola ovis), benzoyl phenyl urea (IGR) resistant
Test: Efficacy long wool lice study, single subcutaneous injection, Merino ewes with 7 months wool growth
Conditions: for Geometric efficacy (%) Day 7 / Geometric efficacy (%) Day 14 / Geometric efficacy (%) Day 21 / Geometric efficacy (%) Day 42 / Geometric efficacy (%) Day 84 / Geometric efficacy (%) Day 140: long wool sheep, Henderson-Tilton

Cc1cc(C2=NOC(c3cc(Cl)cc(Cl)c3)(C(F)(F)F)C2)ccc1C(=O)NCC(=O)NCC(F)(F)F (stereo not shown) [Fluralaner, 4-[5-(3,5-dichlorophenyl)-5-trifluoromethyl-4,5-dihydroisoxazol-3-yl]-2-methyl-N-[(2,2,2-trifluoro-ethylcarbamoyl)-methyl]-benzamide]
Geometric efficacy (%) Day 7 (1.0 mg/kg s.c. once): 99.4% | Geometric efficacy (%) Day 14 (1.0 mg/kg s.c. once): 99.9% | Geometric efficacy (%) Day 21 (1.0 mg/kg s.c. once): 100.0% | Geometric efficacy (%) Day 42 (1.0 mg/kg s.c. once): 100.0% | Geometric efficacy (%) Day 84 (1.0 mg/kg s.c. once): 100.0% | Geometric efficacy (%) Day 140 (1.0 mg/kg s.c. once): 100.0% | Geometric efficacy (%) Day 7 (2.0 mg/kg s.c. once): 99.6% | Geometric efficacy (%) Day 14 (2.0 mg/kg s.c. once): 100.0% | Geometric efficacy (%) Day 21 (2.0 mg/kg s.c. once): 100.0% | Geometric efficacy (%) Day 42 (2.0 mg/kg s.c. once): 100.0% | Geometric efficacy (%) Day 84 (2.0 mg/kg s.c. once): 100.0% | Geometric efficacy (%) Day 140 (2.0 mg/kg s.c. once): 100.0% | Geometric efficacy (%) Day 7 (3.0 mg/kg s.c. once): 99.6% | Geometric efficacy (%) Day 14 (3.0 mg/kg s.c. once): 100.0% | Geometric efficacy (%) Day 21 (3.0 mg/kg s.c. once): 100.0% | Geometric efficacy (%) Day 42 (3.0 mg/kg s.c. once): 100.0% | Geometric efficacy (%) Day 84 (3.0 mg/kg s.c. once): 100.0% | Geometric efficacy (%) Day 140 (3.0 mg/kg s.c. once): 100.0% | treatment related adverse events or health problems (sheep, 1, 2 and 3 mg/kg s.c., throughout the duration of the trial): No treatment related adverse events or health problems occurred
